The values below come from patent US20240398981A1, “NOVEL NANOPARTICLES OF ANTIRETROVIRAL DRUGS, THEIR PREPARATION AND THEIR USE FOR THE TREATMENT OF VIRAL INFECTIONS” (CENTRE NATIONAL DE LA RECHERCHE SCIENTIFIQUE, priority 2018, published 2024).

The subject of one experiment is CCR5. Description: Surface expression of HIV-1 coreceptor on treated macrophages (flow cytometry). Type of experiment: cell-based, human. The method, then: (§1) FIG. 3 represents the inhibition of HIV-1 replication in AZT-NP-treated macrophages. Monocyte-derived macrophages were infected with CCR5-tropic HIV-1Ba-L for 3 h. After several washes, increasing concentrations of AZT derivatives were added to infected macrophages for 6 days of culture. The level of virus replication was monitored in culture supernatants by the p24 antigen capture ELISA. The infection inhibition is expressed as percentage of the average of three independent experiments (A). The frequency of infected cells was determined by flow cytometry after a costaining of macrophages with mAbs anti-CD206 (a marker of macrophages) and mAbs anti-p24 which target intracellular HIV-1 (B). Addition of AZT derivatives was followed by the increase of the size of macrophages as assessed by the Forward-Scattered light parameter (FSC) in flow cytometry (C). […] Using flow cytometry, the expression of the two HIV-1 coreceptors CCR5 (E) and CXCR4 (F) was determined at the surface of AZT derivatives-treated macrophages.
Following six days of infection, the frequency of HIV-1-infected cells was determined by flow cytometry to detect intracellular HIV-1 p24 molecule. […] Stained cells were immediately acquired on a FACScalibur (Becton Dickinson) and analyzed with FlowJo software.
(Flow cytometry measures light scatter and fluorescence of single cells or particles in a stream.)

The next experiment relates to HIV-1. Particulars: DCs infected, then treated with increasing concentrations, T cells added, 6 days.
A further experiment concerns HIV-1BaL. Description: Inhibition of HIV-1 infection in monocyte-derived macrophages. It counts as cell-based. Particulars: six days of culture, p24 in supernatants, dose-dependent. The method, then:
as §1
After 6 days of activation or differentiation, cells were washed twice and seeded into 96-well culture plates ([…]). […] The level of virus replication was monitored by HIV-1 p24 antigen ELISA.
Following six days of infection, the frequency of HIV-1-infected cells was determined by flow cytometry to detect intracellular HIV-1 p24 molecule. […]

The subject of experiment [1] is J774A.1 mouse macrophages. Description: [3H]-AZT-TP cellular uptake. Type of experiment: cell-based. Particulars: J774A.1 cells, up to 8 hour exposure. The method, then:
Nanoparticles containing [methyl-^3H]-AZT-TP were prepared and purified as described above then diluted 1:10 in cell culture medium (in order to maintain cell viability above 80% as determined by MTT tests), so to have 70 nCi/well. A control solution of AZT-TP at the same final radioactivity concentration was used for comparison.
Cells were recovered from the culture flasks, counted and seeded in 6-well plates, at a surface density of 800,000 cells/well for J774A.1 and 160,000 for THP-1 using 2 mL medium per well. After 24 h incubation, the medium was withdrawn and 2 mL of AZT-TP nanoparticles or free AZT-TP were added in each well. Nanoparticles and AZT-TP were incubated with cells for 2 and 8 hours, after which the uptake was stopped by removing the cell culture medium. The cells were washed twice with PBS (Lonza) to remove loosely bound compounds and then lysed with 1 mL Solvable (Perkin-Elmer, France). The radioactivity of the supernatant medium, the washing supernatants and the cell lysate were counted. The uptake kinetics of nanoparticle AZT-TP was studied for 2 and 8 hours and compared to that of free AZT-TP.

For `Cc1cn([C@H]2C[C@H](N=[N+]=[N-])[C@@H](CO)O2)c(=O)[nH]c1=O` [AZT, zidovudine], the “expression of HIV-1 coreceptor CCR5 at macrophage surface” value in the experiment on CCR5 is “did not interfere”. The “production of HIV-1 after transmission from DCs to autologous T cells” value in the experiment with HIV-1 is recorded as “inhibited”. Further, the “production of HIV-1 by macrophages” value with HIV-1BaL is recorded as “inhibited”.

Take `Cc1cn([C@H]2C[C@H](N=[N+]=[N-])[C@@H](COP(=O)(O)OP(=O)(O)OP(=O)(O)O)O2)c(=O)[nH]c1=O` [AZT-TP]: in experiment [1], the AZT-TP uptake entry is “around 3 nmol per million cells”. The “expression of HIV-1 coreceptor CCR5 at macrophage surface” value in the experiment with CCR5 was “did not interfere”. Also, in the experiment with HIV-1, the “production of HIV-1 after transmission from DCs to autologous T cells” value is on record as “inhibited”. In addition, the “production of HIV-1 by macrophages” value in the experiment on HIV-1BaL is on record as “inhibited”.
